According to EP0341661A2, “Peptide-drug compositions containing alpha-aminoboronic acid derivatives” (THE DU PONT MERCK PHARMACEUTICAL COMPANY, priority 1988, dated 1989):
Structures can show the parent of a compound that is named as a salt.

Tested on: aminopeptidases
Assay: In situ nasal perfusion: disappearance of 100 µM Tyr-Phe-Met-Arg-Phe-NH₂ in the nasal perfusate
Type: in vivo, Sprague-Dawley rats
Details: 100 µM peptide, 2 µM Boroleucine
Method: The method involved the use of Sprague-Dawley rats weighing approximately 300 grams. Each rat was anesthetized with sodium pentobarbitol (50 mg/kg). An incision was made in the neck and the trachea was canulated with PE 240 tubing. For the in situ studies, a second tube, which served to introduce the perfusing solution, was inserted through the esophagus to the posterior part of the nasal cavity. The nasopalatine was closed with an adhesive to prevent drainage of the perfusing solution from the nasal to the oral cavity. For the in vivo in situ studies, the esophagus was canulated using PE 240 tubing closed at one end. The closed end was pushed to the posterior end of the nasal passage and then tied in place. The nasopalatine was closed with an adhesive to prevent drainage of the perfusing solution from the nasal to the oral cavity. The rats were dosed in one nostril with 50 µl of peptide solution in two forms; the control solution had no inhibitor added, the test solution had inhibitor added at concentrations specified in the examples shown below. The dosing solution was 0.1 M phosphate buffer (pH 7.4). At certain time intervals (one rat/time interval), the drug was washed from the nose via the other nostril with 10 ml of 0.1 M phosphate buffer (pH 3.8) using a peristaltic pump. The nasal washing was then placed in a 10 ml volumetric flask and adjusted to 10 ml with the same buffer and analyzed for the peptide by HPLC.
The analysis of leucine enkephalin and its major metabolite involved taking aliquots of samples, diluting them with 200 µl of 0.1 M citric acid (pH 2.3) to quench hydrolysis and subjecting the samples to analysis (for in vivo in situ studies, the washings were injected as they were obtained). High Pressure Liquid Chromatography (HPLC) was run on a 4.6 x 250 mm C₈ column. The mobile phase consisted of 0.1 M NaH₂PO₄-H₃PO₄-acetonitrile (916 : 5 : 275) and was delivered at a flow rate of 1.7 ml/min. Detection was by UV at 210 nm. Retention times for leucine enkephalin and its major degradation product, Des-Tyr-leucine enkephalin were 7.3 and 4.8 min., respectively. Data were calculated as % of leucine enkephalin remaining in the nasal perfusate as a function of time, counting the concentration at zero time as 100%.
A 10 ml portion of the peptide solution was placed in a water-jacketed container, maintained at 37°C and circulated through the nasal cavity of rats using a peristaltic pump. The perfusing solution was passed through the nasal cavity, out the nostrils, through a funnel, and returned to the water-jacketed container. The perfusate was analyzed by the ANALYTICAL METHOD described above.
In this example, a 0.1 M phosphate buffer solution (pH 7.4) containing 100 µM Tyr-Phe-Met-Arg-Phe-NH₂ was administered nasally to rats as described in Example 1. The peptide was administered in the absence of inhibitor and in the presence of 2 µM boroleucine. The perfusate was analyzed by HPLC using the procedure described in Example 1 with the exception that the mobile phase was comprised of 0.1 M NaH₂PO₄:H₃PO₄:CH₃CN (200:1:60) delivered at 1.4 ml/min. Detection was by UV at 210 nm.

CC(C)CC(N)B1OC(C)(C)C(C)(C)O1 (stereo not drawn) [boroleucine, 3-methyl-1(4,4,5,5-tetramethyl-1,3,2-dioxaborolane-2-yl)-1-butamine, trifluoroacetic acid salt]
Tyr-Phe-Met-Arg-Phe-NH₂ remaining intact in the nasal perfusate (0 min): 100.0% | Tyr-Phe-Met-Arg-Phe-NH₂ remaining intact in the nasal perfusate (5 min): 93.8% | Tyr-Phe-Met-Arg-Phe-NH₂ remaining intact in the nasal perfusate (20 min): 84.3% | Tyr-Phe-Met-Arg-Phe-NH₂ remaining intact in the nasal perfusate (30 min): 78.8% | Tyr-Phe-Met-Arg-Phe-NH₂ remaining intact in the nasal perfusate (45 min): 70.5% | Tyr-Phe-Met-Arg-Phe-NH₂ remaining intact in the nasal perfusate (60 min): 63.3% | Tyr-Phe-Met-Arg-Phe-NH₂ remaining intact in the nasal perfusate (90 min): 49.5% | Tyr-Phe-Met-Arg-Phe-NH₂ remaining intact in the nasal perfusate (120 min, listed as Boroleucine, trifluoroacetic acid salt): 32.9% | Tyr-Phe-Met-Arg-Phe-NH₂ remaining intact in the nasal perfusate (120 min, trifluoroacetic acid salt): 33%
